For orientation: IC50 means the concentration needed to halve the response being measured. One may read the Ki as the equilibrium dissociation constant of an inhibitor or competing ligand from its target.

This passage reports IC50 and Ki results from patent US9089569B2, “1,2,6-substituted benzimidazoles as flap modulators” (JANSSEN PHARMACEUTICA NV, priority 2013, dated 2015).

Experiment [1] deals with leukotriene pathway in human whole blood (LTB4). Put plainly: Human whole blood assay (LTB4, A23187-stimulated). The following applies: human whole blood diluted 1:1, calcium ionophore A23187 stimulation, LTB4 levels. The format is cell-based. The protocol: An in vitro cellular assay was performed using human whole blood collected in heparin-containing tubes, which was used to test the ability of compounds to modulate the leukotriene pathway in human whole blood. The blood was diluted 1:1 in RPMI medium, pre-incubated for 15 min at 37° Celsius with test compounds at various concentrations, and then stimulated with calcium ionophore, A23187 (7 μg/mL), for 30 min at 37° Celsius. The samples were then centrifuged and plasma was removed. The plasma was diluted in assay buffer and LTB4 levels were measured using a commercial kit (Enzo Life Sciences). The concentration of each compound that was required for half-maximal inhibition (modulation) of […] (IC50) was calculated by a 4-parameter equation using the program GraphPad Prism (GraphPad software). For analysis, data are imported into 3DX and aggregated as the average of duplicates of the calculated ratios in order to calculate Ki and IC50 values. Numbers in parentheses are the number of runs for the assay.

Another experiment concerns the target human FLAP (Homo sapiens (Human), UniProt P20292). Put plainly: FLAP binding assay (HTRF). The settings on record: wild type FLAP-containing membranes, HTRF format. The protocol:
The assay below is used to test the modulatory activity of compounds against FLAP. Human and mouse FLAP-encoding DNA was amplified by polymerase chain reaction and cloned into pFastBac1 (Invitrogen) with a NH2-terminal 6-His tag for expression in Spodoptera frugiperda (Sf-9) cells. FLAP-containing membranes were prepared as was a FITC-labeled FLAP modulator (3-(3-(tert-butylthio)-1-(4-chlorobenzyl)-5-(quinolin-2-ylmethoxy)-1H-indol-2-yl)-2,2-dimethylpropanoic acid). The FLAP binding assay is performed in HTRF format (homogeneous time resolved fluorescence). […] The reaction is allowed to proceed for two hours after which the plate is read on an Envision plate reader in HTRF mode. Data are expressed as a HTRF ratio.
For human FLAP binding assays, data are analyzed with 3DX Explorer software. […] For analysis, data from multiple runs are averaged and each compound may be tested in 2 to 20 runs. Each run comprises two plates and each plate includes duplicates. Data from each plate is averaged and data are imported into 3DX. The data from multiple runs are aggregated as the average of duplicates of the calculated ratios in order to calculate Ki and IC50 values. Numbers in parentheses are the number of runs for the assay.

Counter-ions that a name gives are not always drawn.

human FLAP, sequence (P20292 whole entry): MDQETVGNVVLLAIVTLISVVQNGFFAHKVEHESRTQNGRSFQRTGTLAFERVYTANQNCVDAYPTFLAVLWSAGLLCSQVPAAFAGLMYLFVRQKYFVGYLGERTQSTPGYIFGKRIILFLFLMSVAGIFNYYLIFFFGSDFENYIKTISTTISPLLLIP

In the case of `Cc1ccc(COc2ccc3nc([C@@H]4[C@H](C(=O)O)C4(C)C)n(Cc4ccc(OC(F)(F)F)cc4)c3c2)nc1` (racemic) [Example 25, racemic cis-2,2-Dimethyl-3-{6-[(5-methylpyridin-2-yl)methoxy]-1-[4-(trifluoromethoxy)benzyl]-1H-benzimidazol-2-yl}cyclopropanecarboxylic acid], the IC50 in experiment [1] was found to be 3120 nM.
`Cc1ccc(COc2ccc3nc([C@H]4CCCC[C@H]4C(=O)O)n(Cc4ccc(OC(F)(F)F)c(Cl)c4)c3c2)nc1` (racemic) [Example 32, racemic cis-2-{1-[3-Chloro-4-(trifluoromethoxy)benzyl]-6-[(5-methylpyridin-2-yl)methoxy]-1H-benzimidazol-2-yl}cyclohexanecarboxylic acid]: the IC50 in experiment [1] worked out at 210 nM.
`Cn1ccc(COc2cc3c(cc2F)nc([C@@H]2CCCC[C@@H]2C(=O)O)n3Cc2ccc(OC(F)(F)F)cc2F)n1` (racemic) [Example 90, racemic cis-2-{5-Fluoro-1-[2-fluoro-4-(trifluoromethoxy)benzyl]-6-[(1-methyl-1H-pyrazol-3-yl)methoxy]-1H-benzimidazol-2-yl}cyclohexanecarboxylic acid] registered a Ki on human FLAP of 27 nM.
With `Cn1ccc(COc2cc(F)c3nc(C4CCCC[C@@H]4C(=O)O)n(Cc4ccc(N5CC(F)(F)C5)cc4)c3c2)n1` (mixture of isomers) [Example 168, racemic cis-2-{1-[4-(3,3-Difluoroazetidin-1-yl)benzyl]-4-fluoro-6-[(1-methyl-1H-pyrazol-3-yl)methoxy]-1H-benzimidazol-2-yl}cyclohexanecarboxylic acid as the formate salt], the half-maximal inhibitory concentration (IC50) in experiment [1] turned out to be 3570 nM.
In the case of `Cn1ccc(COc2ccc3nc([C@@H]4CCCC[C@@H]4C(=O)O)n(Cc4ccc(OC(F)(F)F)cc4)c3c2)n1` (relative stereo) [Example 36, (1S*,2R*)-2-{6-[(1-Methyl-1H-pyrazol-3-yl)methoxy]-1-[4-(trifluoromethoxy)benzyl]-1H-benzimidazol-2-yl}cyclohexanecarboxylic acid], in experiment [1] (Homo sapiens), the IC50 was 590 nM.
Same read-out and setting: the figure for `Cn1ccc(COc2ccc3nc([C@@H]4CCCC[C@@H]4C(=O)O)n(Cc4ccc(OC(F)(F)F)cc4)c3c2)n1` (relative stereo) [Example 45, (1R*,2S*)-2-{6-[(1-Methyl-1H-pyrazol-3-yl)methoxy]-1-[4-(trifluoromethoxy)benzyl]-1H-benzimidazol-2-yl}cyclohexanecarboxylic acid] is more than 10000 nM.
With `CCC(CC)(Cc1nc2ccc(OCc3ccn(C)n3)cc2n1Cc1ccc(-c2ccc(C(F)(F)F)cc2)cc1)C(=O)O` [Example 188, 2-ethyl-2-((6-((1-methyl-1H-pyrazol-3-yl)methoxy)-1-((4′-(trifluoromethyl)-[1,1′-biphenyl]-4-yl)methyl)-1H-benzo[d]imidazol-2-yl)methyl)butanoic acid], the IC50 in experiment [1] amounted to 550 nM.
